The record followed here is patent US9555053B2, “Use of oligosaccharide compounds for the prevention and treatment of pathological scars” (LABORATOIRES URGO, priority 2011, dated 2017).

Holding throughout (type): cell-based
Test [1] concerns collagen lattices seeded with normal human dermal fibroblasts (NHDFs). In words: Collagen lattice retraction (area of collagen lattices seeded with NHDFs). The settings on record: for % relative to the control: lattice area relative to control without dressing. The method, then: The collagen lattices were obtained by seeding 0.8×10^6 normal human dermal fibroblasts (NHDFs) in a gel of collagen type I with a final concentration of 1.3 mg/ml.
A dressing (sold under the trade name Urgotul Start) comprising 7.5% of the potassium salt of sucrose octasulfate was applied to the surface of the collagen lattices.
A control series, without dressing, was carried out in order to evaluate the normal contraction of the collagen gel by the seeded NHDFs.
Likewise, a positive control was carried out by adding TGF-β at a concentration of 10 ng/ml in order to visualize the strong contraction induced by the NHDFs highly differentiated into myofibroblasts.
The incubation was maintained up to 7 days.
The effects of the potassium salt of sucrose octasulfate on the retraction of the collagen lattices was observed by means of photographic analysis (FIG. 2) and image analysis measurement of the area of the lattices once contracted.

For test [2], the system named is α-SMA expression in normal human dermal fibroblasts (NHDFs). The experiment in a line: Inhibition of TGF-β-induced differentiation of fibroblasts into myofibroblasts: α-SMA expression by quantitative RT-PCR and Western blot. The settings on record: NHDF cultures, TGF-β 10 ng/ml, KSOS 2 mg/ml, D4. The procedure:
(§1) Cultures of normal human dermal fibroblasts (NHDFs) were prepared in DMEM/F12 culture medium (sold by the company Invitrogen) supplemented with 10% of fetal calf serum (sold by the company Invitrogen), with 5 μg/ml of insulin (sold by the company Promokine) and with 1 ng/ml of bFGF (sold by the company Promokine).
(§2) For this, the NHDF cultures were placed in a P100 dish coated with collagen at 5 μg/ml in DMEM/F12 medium supplemented with 10% of fetal calf serum and supplemented with 10 ng/ml of TGF-β(sold by the company Promocell), which is a growth factor that controls cell proliferation and differentiation (differentiated control in FIG. 1).
(§3) A nondifferentiated control was also prepared using cultures in DMEM/F12 supplemented with 10% calf serum without TGF-β.
(§4) The KSOS was added to the control and differentiated-control cultures to determine its effect on differentiation, in a proportion of 2 mg/ml.
(§5) The results were analyzed after 4 days of culture.
For the measurement of the inhibitory effect of the compound according to the invention, KSOS was added at 2 mg/ml to the cultures undergoing differentiation. • By quantitative RT-PCR: the mRNA was extracted using the Trizol, chloroform and isopropanol method. • By the Western blot method: total cell extracts were prepared and a Western blot was carried out. […]

For test [3], the system named is normal human dermal fibroblasts (NHDFs). The experiment in a line: Differentiation of fibroblasts into myofibroblasts: α-SMA immunofluorescence and counting of differentiated cells. The settings on record: NHDF cultures, TGF-β 10 ng/ml, KSOS 2 mg/ml, 4 days of culture. The method, then:
as §1, §2, §3, §4, §5
The cells were fixed with 4% formaldehyde and permeabilized with Triton. The immunolabeling is carried out using DAPI staining (which gives a blue color) for the cell nuclei, a rabbit anti-α-SMA antibody and an anti-rabbit secondary antibody coupled to Cys3 (sold by Promega).
The number of differentiated cells over the total number of cells is determined by cell counting. […]

On to `O=S(=O)([O-])OC[C@H]1O[C@@](COS(=O)(=O)[O-])(O[C@H]2O[C@H](COS(=O)(=O)[O-])[C@@H](OS(=O)(=O)[O-])[C@H](OS(=O)(=O)[O-])[C@H]2OS(=O)(=O)[O-])[C@@H](OS(=O)(=O)[O-])[C@@H]1OS(=O)(=O)[O-].[K+].[K+].[K+].[K+].[K+].[K+].[K+].[K+]` [KSOS, potassium salt of sucrose octasulfate], for which the “contraction of the collagen lattices (in words)” value in test [1] (between day 1 and day 7) was “limits the contraction of the collagen lattices”. In test [2], the “α-SMA expression (mRNA by quantitative RT-PCR, protein by Western blot)” value is reported as “inhibition of this induction”. Also, in test [3], the “differentiation of fibroblasts into myofibroblasts (differentiated cells expressing α-SMA, immunofluorescence)” value was “inhibition of the differentiation”.

Regarding TGF-β, the “Average of the areas” value in test [1] (Day 1) is reported as 217.3 mm^2; in test [1] (Day 4), 145.9 mm^2; in test [1] (Day 7), 97 mm^2. The “% relative to the control” value in test [1] (Day 1) is given as 95%; in test [1] (Day 4), 76%; in test [1] (Day 7) it was 56%. The “α-SMA expression (mRNA by quantitative RT-PCR, protein by Western blot)” value in test [2] is reported as “induction of α-SMA expression”.
